# According to patent US20260335314A1, “CRYSTALLINE SALTS OR AMORPHOUS FORMS OF 2-((1H-PYRAZOL-3-YL)METHYL)-6-((6-AMINOPYRIDIN-2-YL)METHYL)-4-METHYL-4,6-DIHYDRO -5H-THIAZOLO[5',4':4,5]PYRROLO[2,3-D]PYRIDAZIN-5-ONE” (Agios Pharmaceuticals, Inc., priority 2023, published 2026):
# What was measured:
# [1] = Dynamic vapor sorption (moisture uptake); assay type: physicochemical; details: 25° C., from 5% to 95% relative humidity
# Method: Dynamic Vapor Sorption (DVS) was carried out using a TA Instruments Q5000 Dynamic Vapor Sorption analyzer. The instrument was calibrated with standard weights and a sodium bromide standard for humidity. Approximately 10-25 mg of sample was loaded into a metal-coated quartz pan for analysis. […] The movement from one step to the next occurred either after satisfying the equilibrium criterion of 0.01% weight change or, if the equilibrium criterion was not met, after one hour. The percent weight change values were calculated using Microsoft Excel®.
# pH solubility in buffers = assay type: physicochemical; details: for pH (24 h): pH of solution at 24 h; for solubility / solubility at 2 h / solubility at 24 h: 37 °C
# Method: (§1) Solubility samples were prepared by weighing about 10 mg of each salt and adding 1 mL of media and vortexed briefly to obtain suspensions. […] For such instances, the solubility is calculated as greater than (>).
# (§2) The sample vials were capped and wrapped in aluminum foil, and placed on a shaker at 37° C. The shaker was set at about 100 rpm and vials were removed at specified time points. The vials were observed, and the supernatants were transferred to Eppendorf tubes and centrifuged at 3K for 10 minutes. The clear supernatants were transferred to HPLC vials. The samples were diluted prior to HPLC analysis using the dilution media by 2× or used without dilution. pH was measured of the 24 hour timepoint after centrifugation using a micro pH probe.
# (§3) • pH 2 buffer USP: Mixed 50 mL of 0.2M potassium chloride and 13 mL 0.2M HCl, diluted to 200 mL with water. • pH 4.5 buffer USP: 5.44 g of potassium dihydrogen phosphate was diluted to 1000 mL with water. • pH 6.8 buffer USP: Mixed 50 mL of 0.2M potassium phosphate and 22.4 mL 0.2M sodium hydroxide. Diluted with water to 200 mL. • SGF: 2.0109 g of NaCl was dissolved in water, added 7 mL of conc. HCl and diluted to 1 L. • FeSSIF: 4.0321 g of NaOH and 11.8726 g of NaCl were dissolved in water, added 8.65 mL of glacial acetic acid, adjusted the pH to 5.0 and diluted to 1 L. • FaSSIF: 0.4247 g of NaOH, 3.9548 g of sodium phosphate monobasic monohydrate and 6.1900 g of NaCl were dissolved in water, adjusted the pH to 6.5 and diluted to 1 L.
# At each time point, the solution was analyzed by HPLC and residue was vacuum dried and analyzed by XRPD. The pH of the solution was measured at 24 hours.
# [2] = Kinetic solubility in biorelevant media; assay type: physicochemical
# Method: as §1, §2
# as §3, with “adjusted the pH to 5.0 and diluted to 1 L. • FaSSIF:” left out
# Kinetic solubility was determined in biorelevant media. At each time point, the solution was analyzed by HPLC. The solid residue was analyzed by XRPD at selected time points. The pH of the solution was measured at 24 hours.
# [3] = Pharmacokinetics / absolute bioavailability in male Sprague Dawley rats; assay type: in vivo
# Method: Twenty-one (21) male Sprague Dawley rats (purchased from Shanghai Laboratory Animal Center Co., Ltd., Shanghai, China) were randomized into 7 groups (3 animals per group). The animals fasted overnight, the forms of Compound 1 shown in Table 7 were administered by oral gavage, and the animals were fed 4 hours post-dose.
# Blood was serially collected from each animal at 0 (pre-dose), 0.083, 0.25, 0.5, 1, 2, 4, 8, and 24 h post-dose. For each collection, the animal was restrained manually, and approximately 150 μL of blood sample was collected via the tail vein into K2EDTA tubes. Plasma samples were stored at approximately −70° C. until analysis.
# To enable the calculation of absolute bioavailability, Compound 1 was formulated as a solution in 10% N-methyl-2-pyrrolidone, 10% Solutol HS 15, and 80% saline and administered at 1 mg/kg as intravenous (IV) bolus dose to a separate group of male Sprague Dawley rats, and blood samples were collected at similar timepoints to those shown above. Further, plasma samples were obtained from the collected samples and stored at approximately −70° C. until analysis.
# The concentration of Compound 1 in the plasma samples was determined by LC-MS/MS analysis.
# A 20 μL aliquot of each plasma sample was mixed with 200 μL of acetonitrile containing glipizide as an internal standard (40 ng/mL). The resulting mixture was vortexed at 1500 rpm for 2 min and centrifuged at 5800 rpm for 10 min. A 1 μL sample from the supernatant was injected into LC-MS/MS.
# LC-MS/MS analysis was conducted on a UPLC/MS-MS (API 6500+) system under the conditions outlined in Table 8
# The absolute bioavailability of each form of Compound 1 was determined by dividing the AUCinf of the form in question by the AUCinf obtained historical data by IV administration of Compound 1.
# [4] = Physicochemical properties of Form A (summary)
# [5] = Stability study of Form A (storage); assay type: physicochemical
# [6] = SGF pH 1.2, pH of solution at 24 h
structure (smiles),measurement,setting,value
Cn1c2nc(Cc3cc[nH]n3)sc2c2cnn(Cc3cccc(N)n3)c(=O)c21.O=C(O)C(O)C(O)C(=O)O (racemic) [Form C],moisture uptake (DVS),[1],about 0.06%
same,dissolution in 0.1N HCl,pH solubility in buffers; 0.1N HCl,dissolved instantly
same,pH (24 h),pH solubility in buffers; 0.1 N HCl,1.27
same,solubility,"pH solubility in buffers; 0.1 n hcl, dissolved instantly, estimated by adding 100 uL aliquots, read-out: solubility",> 10900 µg/mL
same,"pH solubility, overall",pH solubility in buffers; buffers pH 1 to pH 6.8,highest solubility
same,pH (24 h),pH solubility in buffers; pH 2 (USP),2.52
same,pH (24 h),pH solubility in buffers; pH 4.5 (USP),3.92
same,pH (24 h),pH solubility in buffers; pH 6.8 (USP),3.54
same,solubility at 2 h,"pH solubility in buffers; ph 2 buffer (usp), pH 2, pH 2 (USP), 2 h",3810 µg/mL
same,solubility at 24 h,"pH solubility in buffers; ph 2 buffer (usp), pH 2, pH 2 (USP), 24 h",2460 µg/mL
same,solubility at 2 h,"pH solubility in buffers; ph 4.5 buffer (usp), pH 4.5, pH 4.5 (USP), 2 h",150 µg/mL
same,solubility at 24 h,"pH solubility in buffers; ph 4.5 buffer (usp), pH 4.5, pH 4.5 (USP), 24 h",120 µg/mL
same,solubility at 2 h,"pH solubility in buffers; ph 6.8 buffer (usp), pH 6.8, pH 6.8 (USP), 2 h",370 µg/mL
same,solubility at 24 h,"pH solubility in buffers; ph 6.8 buffer (usp), pH 6.8, pH 6.8 (USP), 24 h",330 µg/mL
same,pH (24 h),"[2]; FaSSIF pH 5.0 (so in the source), pH of solution at 24 h",4.60
same,pH (24 h),"[2]; FeSSIF pH 6.5 (so in the source), pH of solution at 24 h",3.35
same,pH (24 h),[2]; [6],1.13
same,"kinetic solubility, overall",[2]; all media tested,highest solubility in all media tested
same,solubility at 10 min,"[2]; fassif, pH 5, FaSSIF pH 5.0 (so in the source), 10 min, 37 °C",650 µg/mL
same,solubility at 0.5 h,"[2]; fassif, pH 5, FaSSIF pH 5.0 (so in the source), 30 min, 37 °C",310 µg/mL
same,solubility at 1 h,"[2]; fassif, pH 5, FaSSIF pH 5.0 (so in the source), 1 h, 37 °C",250 µg/mL
same,solubility at 2 h,"[2]; fassif, pH 5, FaSSIF pH 5.0 (so in the source), 2 h, 37 °C",200 µg/mL
same,solubility at 4 h,"[2]; fassif, pH 5, FaSSIF pH 5.0 (so in the source), 4 h, 37 °C",100 µg/mL
same,solubility at 24 h,"[2]; fassif, pH 5, FaSSIF pH 5.0 (so in the source), 24 h, 37 °C",120 µg/mL
same,solubility at 10 min,"[2]; fessif, pH 6.5, FeSSIF pH 6.5 (so in the source), 10 min, 37 °C",530 µg/mL
same,solubility at 0.5 h,"[2]; fessif, pH 6.5, FeSSIF pH 6.5 (so in the source), 30 min, 37 °C",860 µg/mL
same,solubility at 1 h,"[2]; fessif, pH 6.5, FeSSIF pH 6.5 (so in the source), 1 h, 37 °C",910 µg/mL
same,solubility at 2 h,"[2]; fessif, pH 6.5, FeSSIF pH 6.5 (so in the source), 2 h, 37 °C",990 µg/mL
same,solubility at 4 h,"[2]; fessif, pH 6.5, FeSSIF pH 6.5 (so in the source), 4 h, 37 °C",810 µg/mL
same,solubility at 24 h,"[2]; fessif, pH 6.5, FeSSIF pH 6.5 (so in the source), 24 h, 37 °C",20 µg/mL
same,solubility,"[2]; sgf, pH 1.2, SGF pH 1.2, 37 °C, dissolved instantly, from total volume of media added, read-out: solubility",> 11100 µg/mL
same,dissolution in SGF,[2]; simulated gastric fluid (SGF),dissolved instantly
same,"absolute bioavailability, comparison with other forms","[3]; oral gavage, 10 mg/kg",higher than the measured bioavailability of the other forms of Compound 1
same,bioavailability,"[3]; rat, plasma, po, 10 mg/kg, oral gavage, 10 mg/kg, vs historical IV AUCinf, read-out: Absolute % F",91%
same,AUC(0-inf),"[3]; rat, plasma, po, 10 mg/kg, oral gavage, fasted overnight",14200 ng·h/mL
Cn1c2nc(Cc3cc[nH]n3)sc2c2cnn(Cc3cccc(N)n3)c(=O)c21 [Form A],moisture uptake (DVS),[1],about 0.08%
same,solubility at 2 h,"pH solubility in buffers; 0.1 n hcl, 2 h",1970 µg/mL
same,solubility at 24 h,"pH solubility in buffers; 0.1 n hcl, 24 h",1480 µg/mL
same,solubility,"pH solubility in buffers; pH 2 (USP), 2 h, 120 min",400 µg/mL
same,solubility,"pH solubility in buffers; pH 2 (USP), 24 h, 1440 min",300 µg/mL
same,pH (24 h),pH solubility in buffers; pH 2 (USP),2.06
same,solubility,"pH solubility in buffers; pH 4.5 (USP), 2 h, 120 min",60 µg/mL
same,solubility,"pH solubility in buffers; pH 4.5 (USP), 24 h, 1440 min",50 µg/mL
same,pH (24 h),pH solubility in buffers; pH 4.5 (USP),4.32
same,solubility,"pH solubility in buffers; pH 6.8 (USP), 2 h, 120 min",40 µg/mL
same,solubility,"pH solubility in buffers; pH 6.8 (USP), 24 h, 1440 min",70 µg/mL
same,pH (24 h),pH solubility in buffers; pH 6.8 (USP),5.63
same,stability in solvent systems,[4]; especially containing water,stability in multiple solvent systems
same,stability in humidity,[4]; relative humidity,at least 20 % RH
same,particle size,[4]; under microscope,below 20 μm
same,stability in humidity (water activity),[4]; water activity,≥ 0.2
same,solubility,"[2]; FaSSIF pH 6.5, 10 min, 37 °C, 10 min",120 µg/mL
same,solubility,"[2]; FaSSIF pH 6.5, 30 min, 37 °C, 30 min",120 µg/mL
same,solubility,"[2]; FaSSIF pH 6.5, 1 h, 37 °C, 60 min",110 µg/mL
same,solubility,"[2]; FaSSIF pH 6.5, 2 h, 37 °C, 120 min",160 µg/mL
same,solubility,"[2]; FaSSIF pH 6.5, 4 h, 37 °C, 240 min",170 µg/mL
same,solubility,"[2]; FaSSIF pH 6.5, 24 h, 37 °C, 1440 min",180 µg/mL
same,pH (24 h),"[2]; FaSSIF pH 6.5, pH of solution at 24 h",3.91
same,solubility,"[2]; FeSSIF pH 5.0, 10 min, 37 °C, 10 min",550 µg/mL
same,solubility,"[2]; FeSSIF pH 5.0, 30 min, 37 °C, 30 min",100 µg/mL
same,solubility,"[2]; FeSSIF pH 5.0, 1 h, 37 °C, 60 min",230 µg/mL
same,solubility,"[2]; FeSSIF pH 5.0, 2 h, 37 °C, 120 min",70 µg/mL
same,solubility,"[2]; FeSSIF pH 5.0, 4 h, 37 °C, 240 min",70 µg/mL
same,solubility,"[2]; FeSSIF pH 5.0, 24 h, 37 °C, 1440 min",30 µg/mL
same,pH (24 h),"[2]; FeSSIF pH 5.0, pH of solution at 24 h",5.74
same,pH (24 h),[2]; [6],0.87
same,solubility at 10 min,"[2]; sgf, pH 1.2, SGF pH 1.2, 10 min, 37 °C",2850 µg/mL
same,solubility at 0.5 h,"[2]; sgf, pH 1.2, SGF pH 1.2, 30 min, 37 °C",4960 µg/mL
same,solubility at 1 h,"[2]; sgf, pH 1.2, SGF pH 1.2, 1 h, 37 °C",2840 µg/mL
same,solubility at 2 h,"[2]; sgf, pH 1.2, SGF pH 1.2, 2 h, 37 °C",3240 µg/mL
same,solubility at 4 h,"[2]; sgf, pH 1.2, SGF pH 1.2, 4 h, 37 °C",3770 µg/mL
same,solubility at 24 h,"[2]; sgf, pH 1.2, SGF pH 1.2, 24 h, 37 °C",2880 µg/mL
same,degradation,[5]; one month under 25±2° C./60±5% RH,No degradation was observed
same,degradation,[5]; one month under 40±2° C./75±5% RH,No degradation was observed
same,"absolute bioavailability, comparison with other forms","[3]; oral gavage, 10 mg/kg",higher than the measured bioavailability of the other forms of Compound 1
same,AUCinf,"[3]; oral gavage, 10 mg/kg, fasted overnight, plasma",9426 ng·h/mL
same,Absolute % F,"[3]; oral gavage, 10 mg/kg, vs historical IV AUCinf, 10 mg/kg",60%
same,plasma concentration-time profiles and pharmacokinetic parameters,[3]; summary statement,favorable plasma concentration-time profiles and pharmacokinetic parameters
